Consider nine molecules from US10612051B2, “Method of producing bioproducts” (White Dog Labs, Inc., priority 2015, dated 2020).

Structures are written as SMILES.

A short description of data set [1]: Extraction of aqueous bioproduct solutions with 1-butene in a pressure vessel (distribution coefficient). Format: physicochemical. As to conditions: for DC (bioproduct distribution coefficient): 1-butene / aqueous phase, Table 1; for Extract Bioproduct conc. (%) / Raffinate Bioproduct conc. (%): 100 g aqueous solution, 2% initial bioproduct, mixed with 100 g 1-butene; for Extract Bioproduct conc. (%): extract phase; for Raffinate Bioproduct conc. (%): raffinate phase. How it is done:
(§1) 100 g (grams) aqueous solutions of various bioproducts were prepared. Bioproduct initial concentration was 2%. Each of these bioproduct aqueous solutions was extracted in a pressure vessel by mixing with 100 g 1-butene (the olefin). The amount of formed extract and formed raffinate and the concentration (conc.) of the bioproduct in each were determined. Theses concentrations were used to calculate the bioproduct distribution coefficient (DC). Table 2 compares the found distribution coefficients to those of extracting with dimethyl ether (DME).

Data set [2] in a line: Extraction with dimethyl ether (DME), distribution coefficient for comparison. Format: physicochemical. Conditions: extracting with dimethyl ether. How it is done:
as §1

The conditions of data set [3]: 25° C.; cited from earlier work.

On to `CCCC=O` [Butanal], for which, in data set [1], the “DC (bioproduct distribution coefficient)” value was 6.96, the “Extract Bioproduct conc. (%)” value stood at 1.78% and the “Raffinate Bioproduct conc. (%)” value was determined as 0.26%. The “Distribution coefficient DME” value in data set [2] is listed as 5.11.

Regarding `CCCC(C)=O` [Example 2-Pentanone, 2-Pentanone], in data set [1], the “DC (bioproduct distribution coefficient)” value is recorded as 7.95, the “Extract Bioproduct conc. (%)” value is reported as 1.81% and the “Raffinate Bioproduct conc. (%)” value is given as 0.23%. Also, in data set [2], the “Distribution coefficient DME” value came to 5.82.

With `O=Cc1ccco1` [Furfural], in data set [1], the “DC (bioproduct distribution coefficient)” value amounted to 3.35, the “Extract Bioproduct conc. (%)” value is given as 1.56% and the “Raffinate Bioproduct conc. (%)” value is listed as 0.47%. Besides, in data set [2], the “Distribution coefficient DME” value is recorded as 3.79.

Take `O=C1CCCO1` [Gamma Butyrolactone]: in data set [1], the “DC (bioproduct distribution coefficient)” value amounted to 3.69, the “Extract Bioproduct conc. (%)” value was 1.60% and the “Raffinate Bioproduct conc. (%)” value was found to be 0.43%. Further, the “Distribution coefficient DME” value in data set [2] is reported as 3.14.

Turning to `O=C(O)CCCC(=O)O` [Glutaric Acid], in data set [1], the “DC (bioproduct distribution coefficient)” value stood at 0.27, the “Extract Bioproduct conc. (%)” value came out at 0.44% and the “Raffinate Bioproduct conc. (%)” value was found to be 1.51%. Also, the “Distribution coefficient DME” value in data set [2] is reported as 1.88.

As for `CCCC(=O)OC` [Methyl Butyrate], in data set [1], the “DC (bioproduct distribution coefficient)” value was 53.8, the “Extract Bioproduct conc. (%)” value is 2.00% and the “Raffinate Bioproduct conc. (%)” value was 0.038%. Also, in data set [2], the “Distribution coefficient DME” value is reported as 20.73.

Take `CCC(=O)O` [Propionic Acid]: in data set [1], the “DC (bioproduct distribution coefficient)” value was found to be 1.01, the “Extract Bioproduct conc. (%)” value was found to be 1.00% and the “Raffinate Bioproduct conc. (%)” value amounted to 1.00%. Besides, the “Distribution coefficient DME” value in data set [2] is recorded as 2.27.

With `O=C(O)CCC(=O)O` [Succinic Acid], in data set [1], the “DC (bioproduct distribution coefficient)” value was found to be 0.11, the “Extract Bioproduct conc. (%)” value is recorded as 0.158% and the “Raffinate Bioproduct conc. (%)” value is recorded as 1.77%. The “Distribution coefficient DME” value in data set [2] is on record as 1.01.

As to `CCCCO` [n-butanol], the “n-butanol content of saturated aqueous solution” value in data set [3] is on record as “about 7.3 wt %”.
